# Results: paper PMC4821887, “Identification of chemicals that mimic transcriptional changes associated with autism, brain aging and neurodegeneration” (Nature Communications, 2016)
# Counter-ions that a name gives are not always drawn.
# System: mouse cortical neuron cultures
# Conditions: not given
row,Compound,% Dead cells (vehicle subtracted)
1,COCC(=O)N(c1c(C)cccc1C)C(C)C(=O)OC (stereo not shown) [Metalaxyl],0.5361%
2,CCOP(=S)(OCC)Oc1ccc([N+](=O)[O-])cc1 [Parathion],-1.193%
3,CCCN(CCC)c1c([N+](=O)[O-])cc(C(F)(F)F)cc1[N+](=O)[O-] [Trifluralin],0.2689%
4,Nc1c(Cl)cc([N+](=O)[O-])cc1Cl [Dicloran],-0.1169%
5,COP(=O)(OC)SCn1c(=O)oc2cc(Cl)cnc21 [Azamethiphos],-0.5762%
6,CCOP(=S)(Oc1cnc(C(C)(C)C)nc1)OC(C)C (stereo not shown) [Tebupirimfos],0.1923%
7,CCSC(=O)N1CCCCCC1 [Molinate],7.609%
8,CCOc1nc(F)cc2nc(S(=O)(=O)Nc3c(Cl)cccc3Cl)nn12 [Diclosulam],0.003204%
9,O=C(O)C1(C(=O)Nc2ccc(Cl)cc2Cl)CC1 [Cyclanilide],0.6928%
10,CCN(CC)c1nc(C)cc(OP(=S)(OC)OC)n1 [Pirimiphos-methyl],-0.1826%
11,CCOP(=S)(OCC)Oc1cc(C)nc(C(C)C)n1 [Diazinon],0.1738%
12,O=C(O)c1c(Cl)ccc2cc(Cl)cnc12 [Quinclorac],-1.41%
13,CCCN(CCC)C(=O)SCC [EPTC],3.437%
14,COC(=O)c1ccccc1C(=O)OC [Dimethyl phthalate],1.872%
15,CC(Oc1ccc(Cl)cc1Cl)C(=O)O (stereo not shown),-0.3394%
16,Oc1cc(Cl)ccc1Oc1ccc(Cl)cc1Cl [Triclosan],0.6048%
17,COP(=O)(OC)OC(Br)C(Cl)(Cl)Br (stereo not shown) [Naled],-0.709%
18,COP(N)(=O)SC (stereo not shown) [Methamidophos],-1.5388%
19,O=S1OCC2C(CO1)C1(Cl)C(Cl)=C(Cl)C2(Cl)C1(Cl)Cl (stereo not shown) [Endosulfan],-0.8816%
20,CCCN(CCOc1c(Cl)cc(Cl)cc1Cl)C(=O)n1ccnc1 [Prochloraz],-2.048%
21,OC(c1ccc(Cl)cc1)(c1cncnc1)c1ccccc1Cl (stereo not shown) [Fenarimol],-1.829%

row,Compound,% Dead cells (vehicle subtracted)
1,Cc1cc(Cl)ccc1OCC(=O)O [MCPA (Agroxone)],9.261%
2,CCCCSP(=O)(SCCCC)SCCCC [Tribufos],-0.3794%
3,CNC(=O)CSP(=S)(OC)OC [Dimethoate],-3.6%
4,Clc1ccccc1-c1nnc(-c2ccccc2Cl)nn1 [Clofentezine],0.4977%
5,CCOc1cc(Oc2ccc(C(F)(F)F)cc2Cl)ccc1[N+](=O)[O-] [Oxyfluorfen],-3.765%
6,COC(=O)C(C)Oc1ccc(Oc2ccc(Cl)cc2Cl)cc1 (stereo not shown) [Diclofop-methyl],-2.902%
7,CC(C)=CC1C(C(=O)OCN2C(=O)C3=C(CCCC3)C2=O)C1(C)C (stereo not shown) [Tetramethrin],-2.018%
8,N#C/N=C1\SCCN1Cc1ccc(Cl)nc1 [Thiacloprid],2.238%
9,O=c1ccc(=O)[nH][nH]1 [Maleic hydrazide],7.215%
10,CCCOC(=O)NCCCN(C)C [Propamocarb hydrochloride],-1.887%
11,CCCOc1nn(C(=O)[N-]S(=O)(=O)c2ccccc2C(=O)OC)c(=O)n1C.[Na+] [Propoxycarbazone-sodium],-1.764%
12,Cc1nc(N(C)C)nc(OC(=O)N(C)C)c1C [Pirimicarb],-1.736%
13,C#CCC1=C(C)C(OC(=O)C2C(C=C(C)C)C2(C)C)CC1=O (stereo not shown) [Prallethrin],-0.1241%
14,COP(=S)(OC)Oc1ccc(SC)c(C)c1 [Fenthion],-0.5799%
15,COc1nc(C)nc(NC(=O)NS(=O)(=O)c2ccccc2C(=O)O)n1 [Metsulfuron (Ally)],1.078%
16,COP(=S)(OC)SCn1nnc2ccccc2c1=O [Azinphos-methyl],-0.9211%
17,CCCCOC(=O)c1ccccc1C(=O)O,5.2539%
18,O=S(=O)(O)C(F)(F)C(F)(F)C(F)(F)C(F)(F)C(F)(F)C(F)(F)C(F)(F)C(F)(F)F [Perfluorooctane sulfonic acid],6.21%
19,C#CCN1C(=O)COc2cc(F)c(N3C(=O)C4=C(CCCC4)C3=O)cc21 [Flumioxazin],7.054%
20,O=C(O)CCCOc1ccc(Cl)cc1Cl,-0.3394%
21,COP(=O)(OC)O/C(C)=C/C(=O)N(C)C [Dicrotophos],-0.1238%

row,Compound,% Dead cells (vehicle subtracted)
1,CCNc1nc(N)nc(Cl)n1,1.813%
2,CN(C)C(=O)Nc1ccc(Cl)c(Cl)c1 [Diuron],-0.632%
3,CCNP(=S)(OC)O/C(C)=C/C(=O)OC(C)C (stereo not shown) [Propetamphos],-0.3061%
4,CC(C)Nc1nc(Cl)nc(NC(C)C)n1,0.5652%
5,COP(=S)(OC)Oc1nc(Cl)c(Cl)cc1Cl [Chlorpyrifos-methyl],-0.3201%
6,CNC(=O)Oc1cccc2c1OC(C)(C)O2 [Bendiocarb],9.256%
7,CC(C)[C@H](C(=O)O[C@H](C#N)c1cccc(Oc2ccccc2)c1)c1ccc(Cl)cc1 [Esfenvalerate],4.898%
8,CCCCOC(=O)[C@@H](C)Oc1ccc(Oc2ccc(C#N)cc2F)cc1 [Cyhalofop-butyl],0.4476%
9,COP(=O)(NC(C)=O)SC (stereo not shown) [Acephate],-1.8111%
10,CCOC(=O)CC(SP(=S)(OC)OC)C(=O)OCC (stereo not shown) [Malathion],-1.492%
11,COc1cccc(C(=O)NN(C(=O)c2cc(C)cc(C)c2)C(C)(C)C)c1C [Methoxyfenozide],0.2717%
12,COc1nn(CSP(=S)(OC)OC)c(=O)s1 [Methidathion],0.1761%
13,CC1COC(Cn2cncn2)(c2ccc(Oc3ccc(Cl)cc3)cc2Cl)O1 (stereo not shown) [Difenoconazole],-2.028%
14,CCC(C)(C)C(=O)OC1=C(c2ccc(Cl)cc2Cl)C(=O)OC12CCCCC2 [Spirodiclofen],1.699%
15,CC1(C)CON(Cc2ccccc2Cl)C1=O [Clomazone],-3.452%
16,CCc1cccc(C)c1N(C(=O)CCl)C(C)COC (stereo not shown) [Metolachlor],-3.586%
17,N#Cc1cc(Br)c(O)c(Br)c1,-1.631%
18,CCCCC(C#N)(Cn1cncn1)c1ccc(Cl)cc1 (stereo not shown) [Myclobutanil],-1.6229%
19,CNC(=O)/C=C(\C)OP(=O)(OC)OC,-1.862%
20,CCc1cccc(CC)c1N(COC)C(=O)CCl [Alachlor],3.545%

# Same assay, conditions: mouse, 24 h, 0.1 µM
row,Compound,% Dead cells (vehicle subtracted)
1,CN(C)[C@@H]1C(O)=C(C(N)=O)C(=O)[C@@]2(O)C(O)=C3C(=O)c4c(O)cccc4[C@@](C)(O)[C@H]3[C@H](O)[C@@H]12 [Oxytetracycline dihydrate],-3.324%

# Same assay, conditions: mouse, 24 h, 1 µM
row,Compound,% Dead cells (vehicle subtracted)
1,CN(C)[C@@H]1C(O)=C(C(N)=O)C(=O)[C@@]2(O)C(O)=C3C(=O)c4c(O)cccc4[C@@](C)(O)[C@H]3[C@H](O)[C@@H]12 [Oxytetracycline dihydrate],-0.5636%

# Same assay, conditions: mouse, 24 h, 10 µM
row,Compound,% Dead cells (vehicle subtracted)
1,CCNc1nc(NC(C)C)nc(SC)n1 [Ametryn],0.09019%
2,CCSC(=O)N(CC)C1CCCCC1 [Cycloate],2.452%
3,CSc1nc(NC(C)C)nc(NC(C)C)n1 [Prometryn],-5.322%
4,CCOCN(C(=O)CCl)c1c(C)cccc1CC [Acetochlor],2.3535%
5,Cc1ccn2nc(S(=O)(=O)Nc3c(F)cccc3F)nc2n1 [Flumetsulam],0.4495%
6,CCCCC(O)(Cn1cncn1)c1ccc(Cl)cc1Cl (stereo not shown) [Hexaconazole],-2.068%
7,CC(C)C1(C)N=C(c2ncccc2C(=O)O)NC1=O (stereo not shown) [Imazapyr],1.122%
8,CC(C)OC(=O)Nc1cccc(Cl)c1 [Chlorpropham],-1.179%
9,CCCCCOC(=O)COc1cc(N2C(=O)C3=C(CCCC3)C2=O)c(F)cc1Cl [Flumiclorac-pentyl],-0.6581%
10,CC1(C)C(C=C(Cl)Cl)C1C(=O)OC(C#N)c1cccc(Oc2ccccc2)c1 (stereo not shown) [Cypermethrin],-3.377%
11,CCCCOC(=O)c1ccccc1C(=O)OCCCC [Dibutyl phthalate],-2.722%
12,C=CCOC(=O)C(C)(C)OC(=O)c1cc(-n2c(=O)cc(C(F)(F)F)n(C)c2=O)ccc1Cl [Butafenacil],-4.681%
13,CCCCNC(=O)n1c(NC(=O)OC)nc2ccccc21 [Benomyl],1.032%
14,CN(C)c1nc(=O)n(C2CCCCC2)c(=O)n1C [Hexazinone],-2.629%
15,CC(C)Oc1cc(-n2nc(C(C)(C)C)oc2=O)c(Cl)cc1Cl [Oxadiazon],5.6039%
16,CC(C)N1C(=O)N(c2ccccc2)CS/C1=N\C(C)(C)C [Buprofezin],-1.5902%
17,C=C(C)CN(CC)c1c([N+](=O)[O-])cc(C(F)(F)F)cc1[N+](=O)[O-] [Ethalfluralin],1.146%
18,COC(=O)NS(=O)(=O)c1ccc(N)cc1 [Asulam],1.255%
19,Cc1[nH]c(=O)n(C(C)(C)C)c(=O)c1Cl [Terbacil],6.548%
20,CN(C)[C@@H]1C(O)=C(C(N)=O)C(=O)[C@@]2(O)C(O)=C3C(=O)c4c(O)cccc4[C@@](C)(O)[C@H]3[C@H](O)[C@@H]12 [Oxytetracycline dihydrate],21.6384%
21,COC(=O)c1ccccc1CS(=O)(=O)NC(=O)Nc1nc(OC)cc(OC)n1 [Bensulfuron-methyl],-2.606%
22,CC(C)NC(=O)N1CC(=O)N(c2cc(Cl)cc(Cl)c2)C1=O [Iprodione],8.376%
23,COCC(C)N(C(=O)CCl)c1c(C)csc1C (stereo not shown) [Dimethenamid],-0.353%
24,CCOC(=O)C(C)Oc1ccc(Oc2nc3ccc(Cl)cc3o2)cc1 (stereo not shown) [Fenoxaprop-ethyl],9.924%
25,C[Si](Cn1cncn1)(c1ccc(F)cc1)c1ccc(F)cc1 [Flusilazole],-0.05737%
26,Nc1nc(N)nc(NC2CC2)n1 [Cyromazine],-4.3436%
27,Cc1cc(C2CC2)nc(Nc2ccccc2)n1 [Cyprodinil],-6.385%
